{
  "source": "paper PMC3282187",
  "about": "(Neuron, 2012)",
  "test_system": "neurons of the locus coeruleus (LC); mu opioid receptor-coupled K^+ channels",
  "assay_type": "cell-based, rat",
  "data": [
    {"compound": "Nc1ccncc1", "note": "[4-AP]", "values": [
      {"measurement": "effect on residual Ba^2+-insensitive outward current", "value": "unable to block or occlude"}
    ]},
    {"compound": "CC1(C)[C@@H](OC(=O)CCC(=O)O)CC[C@]2(C)[C@H]3C(=O)C=C4[C@@H]5C[C@@](C)(C(=O)O)CC[C@]5(C)CC[C@@]4(C)[C@]3(C)CC[C@@H]12", "note": "[carbenoxolone]", "values": [
      {"measurement": "effect on responses to uncaging stimuli", "value": "not significantly attenuated"}
    ]},
    {"compound": "ZD7288", "values": [
      {"measurement": "effect on residual Ba^2+-insensitive outward current", "value": "unable to block or occlude"}
    ]}
  ]
}
